Laboratory results: patent publication US20080272062A1, “BROAD SPECTRUM ANTIMICROBIAL PURIFICATION DEVICES AND METHODS FOR PURIFYING FLUIDS” (WATER VISIONS INTERNATIONAL, INC., priority 2006, published 2008)
Counter-ions that a name gives are not always drawn. Like-named read-outs stand apart in the source and are kept apart here. Marks after values point to notes of the source that are not given here.

Legend:
[1] = Solubility in solvents (aliquot dried and weighed); type: physicochemical; details: for Solubility: 7 days
Description: A sample of material was placed in a small vial with a few mL of solvent. The solution was stirred by shaking for several hours and then allowed to sit for a week equilibrating.
A 1 mL aliquot drawn from the solution using an Eppendorf pipette was placed in a weigh boat and dried in an oven. The dried sample was weighed. Measurements of the alcohol and water solvents were taken after three hours of mixing and again after a week. At the three hour measurement, it was necessary to centrifuge the sample in order to separate the solvent solution from the particulate matter.

[2] = Temperature dependence of solubility in water; type: physicochemical
Description: The effect of temperature on the solubility of chlorhexidine dihydrate in water was determined by placing a sample of chlorhexidine dihydrate in a 100 mL round bottom flask with 50 mL of deionized water. The round bottom flask contained a stir bar and was placed in an oil bath on a hot plate. The solution was gradually warmed. Aliquots were taken every 15° C. The aliquot was taken from the solution using of a syringe fitted with a micropore filter (Whatman fiberglass filter GF/D, pore size 2.7). The filter separated the solution from the suspended material. The solution was dried in a weigh boat at 60° C. overnight.

Dry bulk density = type: physicochemical; details: packed in 50 ml graduated cylinder, vortex agitated
Description: The materials were loosely packed into tared 50 ml graduated cylinders and agitated with a vortex mixer to further pack the materials in the cylinders. The weight of the material was determined and then divided by the volume of material to determine the bulk density. The larger value for the dihydrate is due to the significant amorphous fraction of the material that is not present in the pure chlorhexidine. The amorphous particles are smaller than crystals and fill the voids between crystals allowing for a greater packing density of particles, […]

Porosity to water = type: physicochemical; details: water head 25 cm, cross-sectional area 2.775 cm^2
Description: To measure the porosity of the materials to water, samples were placed in a ¾″ inner diameter plastic tube fitted with a plug with a hole in the middle. A wire mesh, on top of the plug, prevented the powder from passing through the plug. Deionized water was passed through the sample until the material was sufficiently packed and a second wire mesh was positioned on top of the sample. Water was added to the tube to a height of 25 centimeters above the plug of material. This height was maintained to plus or minus one cm in order to maintain a constant pressure. The porosity was calculated by calculating the volumetric flow rate (volume/time), multiplying by the cross-sectional area (2.775 cm^2), and dividing by the thickness. Accordingly, the rate should increase proportionally with increases in the cross section and decreases in the thickness.

[3] = Density by suspension in binary solvent system; type: physicochemical; details: melted glassy chunk, chlorobenzene/carbon tetrachloride
Text: Chlorhexidine and chlorhexidine dihydrate were melted on a glass slide heated on a hot plate. These glassy materials easily fractured into large chunks. One of these chunks from each sample was used to determine the density of the material. Using a binary solvent system consisting of chlorobenzene (density 1.102 g/cc) and carbon tetrachloride (density […]), the chunk of material was suspended. The solution was adjusted until the particle remained hovering in mid solution without floating to the surface or sinking to the bottom. The resulting solution was weighed in a 10 mL volumetric flask and the density was calculated. The procedure was repeated at least 4 times for each sample.

[4] = Surface energy, contact angle on dip-coated glass slides; type: physicochemical; design: unit not given here
Description: Glass slides were cleaned in hot chromic acid, deionized water and blown dry. Two slides were treated with hexamethyldisilazane to lower their surface energy. Solutions of chlorhexidine dihydrate in chloroform/methanol and chlorhexidine in methylene chloride/methanol were prepared. The slides were coated using a dip-coater with a dipping speed of 2.8 mm/min. […] The untreated slides produced very uniform thin films.

A. niger = test: Gravity flow of inoculum through chlorhexidine dihydrate particle bed; type: cell-based
Description: (§1) Columns having a length of 30.48 cm and diameter of 0.75 in were packed with particle beds comprising chlorhexidine dihydrate having lengths of 1.9 cm, 2.5 cm, and 4.1 cm. A 40 mL mixture of inocculum (comprising 35 million B. subtilis, 91 million E. coli, 130 million R. terrigena, and 100 million A. niger) and water was passed by gravity through the chlorhexidine dihydrate particle bed.

B. subtilis = test: as above; type: cell-based
Description: as §1

E. coli [5] = test: as above; type: cell-based
Description: as §1

R. terrigena = test: as above; type: cell-based
Description: as §1

E. coli/bacteria = test: Pumped flow through chlorhexidine dihydrate treatment device, Aerobic Plate Count; type: cell-based
Description: Dechlorinated city of Atlanta tap water was inoculated with a culture of E. coli/bacteria and pumped through a 0.25 inch chlorhexidine dihvdrate treatment device at a rate of 1 to 2 L/min up to 80 L. Bacterial recovery was determined by Aerobic Plate Count and is shown in Table 9.
Accordingly, the reaction of chlorhexidine dihydrate appears to be of a “catalytic” nature. Conversely, typical applications involving soluble chlorhexidine gluconate result in its consumption and approach a second-order reaction. The same is true for most other known antimicrobial agents. Thus, chlorhexidine dehydrate is particularly suitable for use as a purification material.

all microorganisms = test: Treatment of influent contaminated water stream with particle bed of insoluble chlorhexidine dihydrate; type: cell-based
Text: The composition of chlorhexidine dihydrate produced mortality in all microorganisms with a minimum or greater mean 10-log reduction upon treatment of an influent contaminated water stream with a particle bed of insoluble chlorhexidine dihydrate. While it is known that soluble chlorhexidine salts are bactericidal for some microorganisms, the purification materials embodied herein require insoluble antimicrobial agents. Thus, the previously known chlorhexidine salts are unacceptable for use in the purification materials embodied herein.

[6] = Solubility in solvents (aliquot dried and weighed); type: physicochemical; details: 3 days
E. coli [7] = test: Gravity flow of inoculum through chlorhexidine base particle bed; type: cell-based; details: 40 mL, 6.4 million E. coli, 54 minutes
Description: A 40 mL mixture of inocculum comprising 6.4 million E. coli and water was passed by gravity flow through a chlorhexidine base particle bed. It took 54 minutes for the fluid to pass through the particle bed.

[8] = cited from earlier work
[9] = Water/Ethanol (50:50, 30.0 dyne/cm)
[10] = Water/Ethanol (70:30, 36.1 dyne/cm)
[11] = Water/Ethanol (90:10, 51.3 dyne/cm)
[12] = bed 2.5 cm, flow time 2.0 minutes
[13] = bed 4.1 cm, flow time 1.5 hours

Q: With N=C(NCCCCCCNC(=N)NC(=N)Nc1ccc(Cl)cc1)NC(=N)Nc1ccc(Cl)cc1.O.O [Chlorhexidine dihydrate, chlorhexidine dihydrate] as the molecule, how does the Solubility ([1]; Chloroform) read?
A: 5600 µg/mL

Q: What about the Solubility ([1]; Ethanol) of the same molecule?
A: 600 µg/mL

Q: What about the Solubility ([1]; Ethyl Acetate) of the same molecule?
A: 10000 µg/mL

Q: What about the Solubility ([1]; Iso-propanol) of the same molecule?
A: 400 µg/mL

Q: And the Solubility ([1]; MIBK)?
A: 21100 µg/mL

Q: What about the Solubility ([1]; Methanol) of the same molecule?
A: 2800 µg/mL

Q: What about the Solubility ([1]; Methylene Chloride) of the same molecule?
A: 5600 µg/mL

Q: What about the Solubility ([1]; Water) of the same molecule?
A: <400 µg/mL

Q: And the “Solubility (in words)” value ([1]; hot methanol, chloroform, methylene chloride, and ketones)?
A: appreciable solubility

Q: What about the Solubility in water ([2]; 30 ° C.) of the same molecule?
A: 460 µg/mL

Q: And the Solubility in water ([2]; 45 ° C.)?
A: 740 µg/mL

Q: What about the Solubility in water ([2]; 60 ° C.) of the same molecule?
A: 780 µg/mL

Q: What about the Solubility in water ([2]; 75 ° C.) of the same molecule?
A: 920 µg/mL

Q: And the Solubility in water ([2]; 90 ° C.)?
A: 890 µg/mL

Q: And the “Solubility (in words)” value ([2]; hot and cold water)?
A: very limited solubility

Q: And the “Bulk Density” value (Dry bulk density)?
A: 0.70 g/cc

Q: What about the Porosity (Porosity to water) of the same molecule?
A: 7.55 mL cm^2/min/cm

Q: What about the Density [3] of the same molecule?
A: 1.266 ± .001 g/cc

Q: And the “Mean Contact Angle” value ([4]; Water (72.2 dyne/cm))?
A: 7.08

Q: And the “Mean Contact Angle” value [4, 9]?
A: 0

Q: And the “Mean Contact Angle” value [4, 10]?
A: 18.44

Q: And the “Mean Contact Angle” value [4, 11]?
A: 13.08

Q: What about the “% Reduction” value (A. niger; bed 1.9 cm, flow time 1.0 hour) of the same molecule?
A: >99.9%

Q: And the “Effluent (1.9 cm)” value (A. niger; bed 1.9 cm, inoculum 100 × 10^6, flow time 1.0 hour)?
A: <1000

Q: What about the “% Reduction” value (A. niger; [12]) of the same molecule?
A: 99.2%

Q: And the “Effluent (2.5 cm)” value (A. niger; bed 2.5 cm, inoculum 100 × 10^6, flow time 2.0 minutes)?
A: 8000

Q: And the “% Reduction” value (A. niger; [13])?
A: >99.9%

Q: What about the “Effluent (4.1 cm)” value (A. niger; bed 4.1 cm, inoculum 100 × 10^6, flow time 1.5 hours) of the same molecule?
A: <1000

Q: What about the “% Reduction” value (B. subtilis; bed 1.9 cm, flow time 1.0 hour) of the same molecule?
A: >99.997%

Q: What about the “Effluent (1.9 cm)” value (B. subtilis; bed 1.9 cm, inoculum 35 × 10^6, flow time 1.0 hour) of the same molecule?
A: <1000

Q: And the “% Reduction” value (B. subtilis; [12])?
A: 99.6%

Q: And the “Effluent (2.5 cm)” value (B. subtilis; bed 2.5 cm, inoculum 35 × 10^6, flow time 2.0 minutes)?
A: 14 × 10^5

Q: What about the “% Reduction” value (B. subtilis; [13]) of the same molecule?
A: >99.997%

Q: What about the “Effluent (4.1 cm)” value (B. subtilis; bed 4.1 cm, inoculum 35 × 10^6, flow time 1.5 hours) of the same molecule?
A: <1000

Q: And the “% Reduction” value (E. coli [5]; bed 1.9 cm, flow time 1.0 hour)?
A: >99.999%

Q: And the “Effluent (1.9 cm)” value (E. coli [5]; bed 1.9 cm, inoculum 91 × 10^6, flow time 1.0 hour)?
A: <1000

Q: And the “% Reduction” value (E. coli [5]; [12])?
A: >99.999%

Q: What about the “Effluent (2.5 cm)” value (E. coli [5]; bed 2.5 cm, inoculum 91 × 10^6, flow time 2.0 minutes) of the same molecule?
A: <1000

Q: And the “% Reduction” value (E. coli [5]; [13])?
A: >99.999%

Q: What about the “Effluent (4.1 cm)” value (E. coli [5]; bed 4.1 cm, inoculum 91 × 10^6, flow time 1.5 hours) of the same molecule?
A: <1000

Q: And the “% Reduction” value (R. terrigena; bed 1.9 cm, flow time 1.0 hour)?
A: >99.999%

Q: What about the “Effluent (1.9 cm)” value (R. terrigena; bed 1.9 cm, inoculum 130 × 10^6, flow time 1.0 hour) of the same molecule?
A: <1000

Q: What about the “% Reduction” value (R. terrigena; [12]) of the same molecule?
A: >99.999%

Q: What about the “Effluent (2.5 cm)” value (R. terrigena; bed 2.5 cm, inoculum 130 × 10^6, flow time 2.0 minutes) of the same molecule?
A: <1000

Q: And the “% Reduction” value (R. terrigena; [13])?
A: >99.999%

Q: And the “Effluent (4.1 cm)” value (R. terrigena; bed 4.1 cm, inoculum 130 × 10^6, flow time 1.5 hours)?
A: <1000

Q: What about the “inactivation of E. coli” value (E. coli/bacteria; 1 to 2 L/min up to 80 L, 0.25 inch thickness disc) of the same molecule?
A: 100%

Q: What about the “Total Aerobic Plate Count” value (E. coli/bacteria; 20 L run through device, untreated 8.6 × 10^8, 1 to 2 L/min) of the same molecule?
A: 10 # colonies/mL

Q: What about the “Total Aerobic Plate Count” value (E. coli/bacteria; 40 L run through device) of the same molecule?
A: <10 # colonies/mL

Q: What about the “Total Aerobic Plate Count” value (E. coli/bacteria; 60 L run through device) of the same molecule?
A: <10 # colonies/mL

Q: What about the “Total Aerobic Plate Count” value (E. coli/bacteria; 80 L run through device) of the same molecule?
A: <10 # colonies/mL

Q: What about the “mean log reduction (mortality in all microorganisms)” value (all microorganisms) of the same molecule?
A: ≥ 10 log

Q: And the Solubility ([6]; Ethanol)?
A: 1700 µg/mL

Q: What about the Solubility ([6]; Iso-propanol) of the same molecule?
A: 900 µg/mL

Q: What about the Solubility ([6]; Methanol) of the same molecule?
A: 3600 µg/mL

Q: What about the Solubility ([6]; Water) of the same molecule?
A: <500 µg/mL

Q: With [H]/N=C(\N/C(=N/[H])NCCCCCCNC(=N)NC(=N)Nc1ccc(Cl)cc1)Nc1ccc(Cl)cc1 [Chlorhexidine hydrochloride, chlorhexidine hydrochloride] as the molecule, how does the “Bulk Density” value (Dry bulk density) read?
A: 0.15 g/cc

Q: With [H]/N=C(\N/C(=N/[H])NCCCCCCNC(=N)NC(=N)Nc1ccc(Cl)cc1)Nc1ccc(Cl)cc1 [Chlorhexidine, N,N″Bis(4-chlorophenyl)-3,12-diimino-2,4,11,13-tetrazatetradecanediimideamide, reference compound] as the molecule, how does the “Bulk Density” value (Dry bulk density) read?
A: 0.64 g/cc

Q: And the Porosity (Porosity to water)?
A: 3.60 mL cm^2/min/cm

Q: And the Density [3]?
A: 1.270 ± .001 g/cc

Q: What about the “Mean Contact Angle” value ([4]; Water (72.2 dyne/cm)) of the same molecule?
A: 10.28

Q: What about the “Mean Contact Angle” value [4, 9] of the same molecule?
A: 0

Q: And the “Mean Contact Angle” value [4, 10]?
A: 13.5

Q: What about the “Mean Contact Angle” value [4, 11] of the same molecule?
A: 15.3

Q: And the “reduction in E. coli” value (E. coli [7])?
A: greater than 99.999%

Q: What about the Solubility ([8]; reported by Block, Disinfection, Sterilization, and Preservation, 2001) of the same molecule?
A: 0.0008%

Q: And the Solubility ([8]; reported by Merck Index)?
A: 0.08%
